Measured values as given in patent US12583858B2 (Genentech, Inc., priority 2015, dated 2026).
pEC50: −log10 of the molar value.

Molecular target: T1, TDO2 (Homo sapiens, UniProt P48775)
T1 construct: decreased levels of NFK in SW48 cells (high TDO expressing cells)
Assay: TDO2 cell assay (NFK GreenScreen, SW48 cells)
Type: cell-based
Details: SW48 cells (high TDO expressing), 200 uM tryptophan, 24 hours; Table 3; read-out: TDO2 Cell Fluor EC50

T1 sequence (P48775 whole entry): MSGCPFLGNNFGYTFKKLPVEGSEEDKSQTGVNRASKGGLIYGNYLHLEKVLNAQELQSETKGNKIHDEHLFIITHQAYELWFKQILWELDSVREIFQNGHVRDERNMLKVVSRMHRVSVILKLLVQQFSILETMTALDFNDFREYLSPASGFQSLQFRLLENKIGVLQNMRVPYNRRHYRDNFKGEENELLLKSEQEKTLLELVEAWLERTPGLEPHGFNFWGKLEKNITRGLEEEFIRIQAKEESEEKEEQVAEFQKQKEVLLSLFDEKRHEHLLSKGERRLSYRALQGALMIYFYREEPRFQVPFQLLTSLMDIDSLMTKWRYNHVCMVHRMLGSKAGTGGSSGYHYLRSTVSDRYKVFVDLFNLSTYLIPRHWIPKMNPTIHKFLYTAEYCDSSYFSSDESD

| SMILES | pEC50 |
| --- | --- |
| N#CCN1CC[C@@H]([C@@H]2c3ccccc3-c3cncn32)[C@H](O)C1 (single isomer, unassigned) [Example 27d] | 5.52 |
| NS(=O)(=O)N1CC(O)C(C2c3ccccc3-c3cncn32)C1 (single isomer, unassigned) [Example 28a] | < 4.60 |
| NS(=O)(=O)N1CC(O)C(C2c3ccccc3-c3cncn32)C1 (single isomer, unassigned) [Example 28b] | 5.36 |
| NS(=O)(=O)N1CC(O)C(C2c3ccccc3-c3cncn32)C1 (single isomer, unassigned) [Example 28c] | < 4.60 |
| NS(=O)(=O)N1CC(O)C(C2c3ccccc3-c3cncn32)C1 (single isomer, unassigned) [Example 28d] | < 4.60 |
| O=c1cccc2n1CCC(C1c3ccccc3-c3cncn31)C2O (single isomer, unassigned) [Example 29a, 1-hydroxy-2-(5H-imidazo[5,1-a]isoindol-5-yl)-3,4-dihydro-1H-quinolizin-6(2H)-one] | < 4.60 |
| O=c1cccc2n1CCC(C1c3ccccc3-c3cncn31)C2O (single isomer, unassigned) [Example 29b, 1-hydroxy-2-(5H-imidazo[5,1-a]isoindol-5-yl)-3,4-dihydro-1H-quinolizin-6(2H)-one] | 6.17 |
| O=c1cccc2n1CCC(C1c3ccccc3-c3cncn31)C2O (single isomer, unassigned) [Example 29c, 1-hydroxy-2-(5H-imidazo[5,1-a]isoindol-5-yl)-3,4-dihydro-1H-quinolizin-6(2H)-one] | 4.62 |
| O=c1cccc2n1CCC(C1c3ccccc3-c3cncn31)C2O (single isomer, unassigned) [Example 29d, 1-hydroxy-2-(5H-imidazo[5,1-a]isoindol-5-yl)-3,4-dihydro-1H-quinolizin-6(2H)-one] | 5.24 |
| O=c1cccc2n1CCC(C1c3ccccc3-c3cncn31)C2O (single isomer, unassigned) [Example 29e, 1-hydroxy-2-(5H-imidazo[5,1-a]isoindol-5-yl)-3,4-dihydro-1H-quinolizin-6(2H)-one] | 6.36 |
| O=c1cccc2n1CCC(C1c3ccccc3-c3cncn31)C2O (single isomer, unassigned) [Example 29f, 1-hydroxy-2-(5H-imidazo[5,1-a]isoindol-5-yl)-3,4-dihydro-1H-quinolizin-6(2H)-one] | < 4.60 |
| OC1COCC1C1c2ccc(F)cc2-c2cncn21 (single isomer, unassigned) [Example 30a] | 6.59 |
| OC1COCC1C1c2ccc(F)cc2-c2cncn21 (single isomer, unassigned) [Example 30b] | 4.82 |
| OC1COCC1C1c2ccc(F)cc2-c2cncn21 (single isomer, unassigned) [Example 30c] | 5.68 |
| OC1COCC1C1c2ccc(F)cc2-c2cncn21 (single isomer, unassigned) [Example 30d] | < 4.60 |
| OC1c2cccnc2CCC1C1c2ccccc2-c2cncn21 (single isomer, unassigned) [Example 31c] | 4.77 |
| OC1c2cccnc2CCC1C1c2ccccc2-c2cncn21 (single isomer, unassigned) [Example 31d] | < 4.60 |
| OC1c2cccnc2CCC1C1c2ccccc2-c2cncn21 (single isomer, unassigned) [Example 31e] | 5.96 |
| OC1c2cccnc2CCC1C1c2ccccc2-c2cncn21 (single isomer, unassigned) [Example 31f] | 7.09 |
| N[C@@H]1COC[C@@H]1[C@H]1c2ccccc2-c2cncn21 (single isomer, unassigned) [Example 32c] | 5.28 |
| OC1COCCC1C1c2ccc(F)cc2-c2cncn21 (single isomer, unassigned) [Example 33a] | < 4.60 |
| OC1COCCC1C1c2ccc(F)cc2-c2cncn21 (single isomer, unassigned) [Example 33c] | 5.46 |
| OC1COCCC1C1c2ccc(F)cc2-c2cncn21 (single isomer, unassigned) [Example 33d] | < 4.60 |
| O[C@@H]1CCOC[C@H]1[C@H]1c2ccc(F)cc2-c2cncn21 (single isomer, unassigned) [Example 34a] | 5.74 |
| O[C@@H]1CCOC[C@H]1[C@H]1c2ccc(F)cc2-c2cncn21 (single isomer, unassigned) [Example 34b] | < 4.60 |
| CC1(O)CCC1C1c2ccccc2-c2cncn21 (single isomer, unassigned) [Example 35a] | < 4.60 |
| CC1(O)CCC1C1c2ccccc2-c2cncn21 (single isomer, unassigned) [Example 35b] | 6.35 |
| CC1(O)CCC1C1c2ccccc2-c2cncn21 (single isomer, unassigned) [Example 35c] | < 4.60 |

| SMILES | pEC50 |
| --- | --- |
| CC1(O)CCC1C1c2ccccc2-c2cncn21 (single isomer, unassigned) [Example 35d] | 6.46 |
| CS(=O)(=O)c1ccc2c(c1)CCC(C1c3ccccc3-c3cncn31)C2O (single isomer, unassigned) [Example 36a] | 5.89 |
| CS(=O)(=O)c1ccc2c(c1)CCC(C1c3ccccc3-c3cncn31)C2O (single isomer, unassigned) [Example 36b] | 7.24 |
| CS(=O)(=O)c1ccc2c(c1)CCC(C1c3ccccc3-c3cncn31)C2O (single isomer, unassigned) [Example 36c] | 5.13 |
| CS(=O)(=O)c1ccc2c(c1)CCC(C1c3ccccc3-c3cncn31)C2O (single isomer, unassigned) [Example 36d] | 5.42 |
| CS(=O)(=O)c1ccc2c(c1)CCC(C1c3ccccc3-c3cncn31)C2O (single isomer, unassigned) [Example 36e] | 5.57 |
| CS(=O)(=O)c1ccc2c(c1)CCC(C1c3ccccc3-c3cncn31)C2O (single isomer, unassigned) [Example 36f] | 6.85 |
| CS(=O)(=O)c1ccc2c(c1)CCC(C1c3ccccc3-c3cncn31)C2O (single isomer, unassigned) [Example 36g] | 4.72 |
| CS(=O)(=O)c1ccc2c(c1)CCC(C1c3ccccc3-c3cncn31)C2O (single isomer, unassigned) [Example 36h] | 6.01 |
| O=S1(=O)CC(O)C(C2c3ccccc3-c3cncn32)C1 (single isomer, unassigned) [Example 38a] | 4.80 |
| O=S1(=O)CC(O)C(C2c3ccccc3-c3cncn32)C1 (single isomer, unassigned) [Example 38b] | 6.82 |
| O=S1(=O)CC(O)C(C2c3ccccc3-c3cncn32)C1 (single isomer, unassigned) [Example 38c] | 4.66 |
| O=S1(=O)CC(O)C(C2c3ccccc3-c3cncn32)C1 (single isomer, unassigned) [Example 38d] | 5.42 |
| NS(=O)(=O)N1CC[C@@H]([C@H]2c3ccccc3-c3cncn32)[C@H](O)C1 (single isomer, unassigned) [Example 39b] | 5.43 |
| NS(=O)(=O)N1CC[C@@H]([C@@H]2c3ccccc3-c3cncn32)[C@H](O)C1 (single isomer, unassigned) [Example 39c] | < 4.60 |
| NS(=O)(=O)N1CC[C@@H]([C@@H]2c3ccccc3-c3cncn32)[C@H](O)C1 (single isomer, unassigned) [Example 39d] | 7.25 |
| CCS(=O)(=O)N1CC(O)C(C2c3ccccc3-c3cncn32)C1 (single isomer, unassigned) [Example 40a] | 5.19 |
| CCS(=O)(=O)N1CC(O)C(C2c3ccccc3-c3cncn32)C1 (single isomer, unassigned) [Example 40b] | 4.80 |
| CCS(=O)(=O)N1CC(O)C(C2c3ccccc3-c3cncn32)C1 (single isomer, unassigned) [Example 40c] | < 4.60 |
| CCS(=O)(=O)N1CC(O)C(C2c3ccccc3-c3cncn32)C1 (single isomer, unassigned) [Example 40d] | < 4.60 |
| CC(C)(C)OC(=O)N1CC2(CC(C3c4ccccc4-c4cncn43)C2O)C1 (single isomer, unassigned) [Example 41a, tert-butyl 7-hydroxy-6-(5H-imidazo[1,5-b]isoindol-5-yl)-2-azaspiro[3.3]heptane-2-carboxylate] | < 4.60 |
| CC(C)(C)OC(=O)N1CC2(CC(C3c4ccccc4-c4cncn43)C2O)C1 (single isomer, unassigned) [Example 41b, tert-butyl 7-hydroxy-6-(5H-imidazo[1,5-b]isoindol-5-yl)-2-azaspiro[3.3]heptane-2-carboxylate] | 6.10 |
| CC(C)(C)OC(=O)N1CC2(CC(C3c4ccccc4-c4cncn43)C2O)C1 (single isomer, unassigned) [Example 41c, tert-butyl 7-hydroxy-6-(5H-imidazo[1,5-b]isoindol-5-yl)-2-azaspiro[3.3]heptane-2-carboxylate] | 4.64 |
| CC(C)(C)OC(=O)N1CC2(CC(C3c4ccccc4-c4cncn43)C2O)C1 (single isomer, unassigned) [Example 41d, tert-butyl 7-hydroxy-6-(5H-imidazo[1,5-b]isoindol-5-yl)-2-azaspiro[3.3]heptane-2-carboxylate] | 5.49 |
| CC(C)(C)OC(=O)N1CC2(CC(C3c4ccccc4-c4cncn43)C2O)C1 (single isomer, unassigned) [Example 41e, tert-butyl 7-hydroxy-6-(5H-imidazo[1,5-b]isoindol-5-yl)-2-azaspiro[3.3]heptane-2-carboxylate] | 6.21 |
| CC(C)(C)OC(=O)N1CC2(CC(C3c4ccccc4-c4cncn43)C2O)C1 (single isomer, unassigned) [Example 41f, tert-butyl 7-hydroxy-6-(5H-imidazo[1,5-b]isoindol-5-yl)-2-azaspiro[3.3]heptane-2-carboxylate] | 4.77 |
| CC(C)(C)OC(=O)N1CC2(CC(C3c4ccccc4-c4cncn43)C2O)C1 (single isomer, unassigned) [Example 41g, tert-butyl 7-hydroxy-6-(5H-imidazo[1,5-b]isoindol-5-yl)-2-azaspiro[3.3]heptane-2-carboxylate] | < 4.60 |
